59 compounds from the METLIN SMRT retention time set (Domingo-Almenara et al. 2019) can be followed below.

The structures appear in SMILES notation.

This data set is described as follows: gradient 5% acetonitrile 3 min, to 50% in 2 min, to 85% in 15 min, held 3 min, 100 µL/min. To be noted: column: Zorbax Extend-C18 2.1 x 50 mm; eluents: water / acetonitrile, 0.1% formic acid. A digest of the protocol: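 Pure standards were run in mixtures of ~100 molecules by HPLC coupled to a quadrupole time-of-flight mass spectrometer. The column was a Zorbax Extend-C18 (2.1 × 50 mm, 1.8 μm) at 100 μL/min, with water and acetonitrile each containing 0.1% formic acid, in positive and negative ionization mode. Dead and dwell volumes were 40 μL and 900 μL. Retention time was taken from computationally picked adduct peaks, each manually inspected, with data collected over 3 months.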
Turning to `O=C(NCc1ccc(Br)cc1)c1cn2c(n1)CCCC2`, the RP-LC retention time amounted to 633 s.
As for `O=c1cc(CSc2nc(NCc3ccc4c(c3)OCO4)c3ccccc3n2)nc2ccccn12`, the RP-LC retention time was 635 s.
In the case of `O=C(CC1CCCCN1S(=O)(=O)c1ccc(Cl)cc1)NCc1ccco1` (centres undefined) it was 852 s; in that of `CCCCNC(=O)c1cc(NC(=O)C2CCC2)cc2nc(C)ccc12`, 644 s.
In the case of `Cc1ccc(Nc2c(-c3ccccc3)nc3ccc(Br)cn23)cc1` it was 881 s; in that of `Cc1nc2c(C(=O)N3CCN(c4ccccn4)CC3)cnn2c(C)c1Cc1ccccc1Cl`, 697 s.
The figure for `Cc1[nH]c2ccccc2c1C(=O)C(=O)Nc1ccccc1F` is 846 s; for `Cc1ccc(-c2nc(C)cc(OCC(=O)Nc3c(C)cc(C)cc3C)n2)cc1` it is 1130 s.
`Cc1nn(-c2ccccc2)c(C)c1/C=C1\Oc2cc(O)ccc2C1=O`: the RP-LC retention time is 782 s.
The compound `COc1cc(NC(=O)N2CCCC(CN3CCc4ccccc4C3)C2)cc(OC)c1OC` (centres undefined) displayed an RP-LC retention time of 642 s.
With `CCCNC(=O)CN1C(=O)CC(c2ccc(Br)s2)=Nc2ccccc21`, the RP-LC retention time was determined as 913 s.
The figure for `Cc1ccc(C)c(NC(=O)c2csc(-c3cn(C)c4ncccc34)n2)c1` is 1110 s.
On to `Cc1ccc(NC(=O)N2CCC(C(C)C(=O)Nc3ccc(C)cc3Cl)CC2)cc1` (centres undefined), for which the RP-LC retention time is 950 s.
In the case of `CC(C)c1cc(C(=O)NC2CC2)n[nH]1` it was 625 s.
In turn, `Cc1cc(=O)n(CC(=O)Nc2ccc(F)cc2)c(-c2ccc(Cl)cc2)n1` displayed an RP-LC retention time of 1120 s.
In the case of `Cc1cc(C)nc(Nc2nc(CC(=O)NCCc3ccc(S(N)(=O)=O)cc3)cs2)n1` it was 604 s.
The figure for `Cc1cccc(-c2noc(C3CCCN3C(=O)Nc3ccc(F)cc3)n2)c1` (centres undefined) is 1010 s; for `Cc1noc(C2CN(C(=O)Cc3noc4ccccc34)C2)n1` it is 642 s; for `Cn1nc(C(=O)N2CCN3CCS(=O)(=O)N(C4CC4)C(=O)C3C2)c2ccccc21` (centres undefined) it is 748 s.
`CCOc1ccc(-c2noc(CN3C(=O)C(C)Oc4ccccc43)n2)cc1OC` (centres undefined): the RP-LC retention time is 1040 s.
In the case of `CN(C)C(=O)c1ccc2c(c1)N(CC(=O)Nc1ccc(Cl)cc1)C(=O)CS2` it was 753 s; in that of `O=C(CCn1nnc2cc(S(=O)(=O)N3CCCCC3)ccc21)N1CCN(c2ccccn2)CC1`, 665 s; in that of `COC(=O)C1=C(C(=O)OC)SC2(S1)C(C(=O)OC)=C(C(=O)OC)Sc1c2ssc1=O`, 977 s.
Compound `Cc1ccc(Cn2nc3c(S(=O)(=O)N4CCN(c5ccc(F)cc5)CC4)cccn3c2=O)c(C)c1` returned an RP-LC retention time of 1080 s.
In the case of `CC(C)CNC(=O)c1ccc(-n2cc(CNC(=O)C3CC3)cn2)cc1` it was 682 s.
The compound `CC(=O)N1CCC2(CC1)N(CC1CC1)C(=O)CS2=O` (centres undefined) returned an RP-LC retention time of 565 s.
The figure for `O=C(NCc1cccs1)C1CCN(Cc2cc3ccccc3n2Cc2ccccc2Cl)CC1` is 821 s.
In the case of `CC1(C(=O)NCc2cc(F)ccc2F)CCCCC(=O)N1` (centres undefined) it was 674 s; in that of `CCCn1cnc2cc(CNC(=O)C3CC(=O)N(c4cccc(Cl)c4)C3)ccc21` (centres undefined), 659 s.
The figure for `COC(=O)c1nc(NC(=O)Cn2nc3c(cc2=O)CCCC3)sc1-c1ccccc1` is 827 s; for `O=C(NCCc1ccc(Cl)cc1)C(=O)c1ccc[nH]1` it is 878 s.
As to `Cc1cc(C)cc(NS(=O)(=O)c2cc(-c3[nH]ncc3C(=O)N(C)C)oc2C)c1`, the RP-LC retention time is 718 s.
The figure for `c1cncc(-c2nc(-c3ccc4c(c3)ncn4CCN3CCCCC3)no2)c1` is 581 s; for `COc1ccccc1C(=O)Nc1cccn2ncnc12` it is 803 s.
The figure for `COc1ccc(C)cc1NC(=O)c1nc(C)oc1C` is 1020 s; for `COc1cc([C@@H]2c3cc4c(cc3[C@H](O)[C@@H](CO)[C@@H]2C(=O)N2CCOCC2)OCO4)cc(OC)c1OC` it is 632 s.
For `Cc1ccn2c(Nc3ccccc3C)c(-c3cccc(Cl)c3)nc2c1`, the RP-LC retention time was determined as 890 s.
The figure for `Cn1nc(-c2nc(C3CC3)no2)c2c1CCN(C(=O)Nc1ccccc1Cl)C2` is 871 s.
For the compound `COc1ccc(-c2nc(Cn3c(=O)c4c(C)cc(C)nc4n(C)c3=O)c(C)o2)cc1`, the RP-LC retention time was determined as 1200 s.
In turn, `O=c1ccc(-c2ccc3c(c2)OCO3)nn1CCc1nc(-c2ccccc2Br)no1` registered an RP-LC retention time of 936 s.
Compound `COc1cccc(-c2ccc3nc(N4CCC(C(=O)N5CCCC5)CC4)sc3n2)c1` had an RP-LC retention time of 912 s.
In the case of `CCn1ccc(C(=O)N2CC(c3nc(-c4ccsc4)nn3C)C2)n1` it was 695 s; in that of `Cc1ccc(-c2nnc(Cc3nc(-c4cccc(Cl)c4)no3)o2)cc1F`, 1170 s.
For the compound `CC(C)N1CCN(c2ncccc2-c2nnc(-c3ccc(Cl)cc3)o2)CC1`, the RP-LC retention time turned out to be 670 s.
Compound `Cc1ccc(N2CCC(NC(=O)c3cccs3)C2=O)cc1C` (centres undefined) yielded an RP-LC retention time of 827 s.
The figure for `Cc1nc(C)c(C(=O)Nc2ccccc2NC(=O)c2ccccn2)s1` is 691 s; for `COc1ccccc1CNC(=O)c1cn2cc(C)ccc2n1` it is 681 s; for `COc1ccc(CCN2CC(C(=O)O)CC2=O)cc1OC` (centres undefined) it is 611 s.
In the case of `COc1cc(CN2CC(F)(F)C[C@H]2c2nnc(C3CC3)o2)ccc1F` it was 931 s; in that of `O=C1CCN(C(=O)C2CCN(C(=O)C3CC3)CC2)CCCCCCN1`, 598 s; in that of `COc1cc(-c2nc3ncccn3c2Nc2c(C)cccc2C)ccc1O`, 683 s.
`Cc1ccc(C2=NC3(CCN(C(=O)c4c[nH]c5ccccc45)CC3)ON2)cc1` returned an RP-LC retention time of 769 s.
The figure for `COc1cccc(Cn2nc3ccc(S(=O)(=O)N4CCCCCC4)cn3c2=O)c1` is 946 s; for `O=C(Cn1ncc2c(N3CCN(c4ccccn4)CC3)ncnc21)Nc1ccc(F)cc1F` it is 615 s; for `O=C(Nc1ccc(F)cc1F)N1CCC(CCNC(=O)C2(c3ccccc3)CC2)CC1` it is 886 s.
The compound `CC(C)c1ccc(Nc2c(-c3ccc(O)cc3)nc3ncccn23)cc1` returned an RP-LC retention time of 713 s.
As to `Cn1nc(-c2nc(C3CC3)no2)c2c1CCN(C(=O)c1c(F)cccc1Cl)C2`, the RP-LC retention time was found to be 837 s.
The figure for `CSc1cccc(NC(=O)Cn2c(=O)n(-c3ccc(C)cc3)c(=O)c3c2cc(C)n3C)c1` is 910 s.
With `CCCN(C)C(=O)c1ccc2c(c1)Sc1ncccc1C(=O)N2C(C)C`, the RP-LC retention time is 760 s.
